{"source": "ChEMBL document CHEMBL4130350", "about": "“Discovery, mechanism and metabolism studies of 2,3-difluorophenyl-linker-containing PARP1 inhibitors with enhanced in vivo efficacy for cancer therapy” (Eur J Med Chem, 2017)", "key": {"[1]": {"target": "Poly [ADP-ribose] polymerase 1 (Homo sapiens, UniProt P09874)", "sequence (P09874 whole entry)": "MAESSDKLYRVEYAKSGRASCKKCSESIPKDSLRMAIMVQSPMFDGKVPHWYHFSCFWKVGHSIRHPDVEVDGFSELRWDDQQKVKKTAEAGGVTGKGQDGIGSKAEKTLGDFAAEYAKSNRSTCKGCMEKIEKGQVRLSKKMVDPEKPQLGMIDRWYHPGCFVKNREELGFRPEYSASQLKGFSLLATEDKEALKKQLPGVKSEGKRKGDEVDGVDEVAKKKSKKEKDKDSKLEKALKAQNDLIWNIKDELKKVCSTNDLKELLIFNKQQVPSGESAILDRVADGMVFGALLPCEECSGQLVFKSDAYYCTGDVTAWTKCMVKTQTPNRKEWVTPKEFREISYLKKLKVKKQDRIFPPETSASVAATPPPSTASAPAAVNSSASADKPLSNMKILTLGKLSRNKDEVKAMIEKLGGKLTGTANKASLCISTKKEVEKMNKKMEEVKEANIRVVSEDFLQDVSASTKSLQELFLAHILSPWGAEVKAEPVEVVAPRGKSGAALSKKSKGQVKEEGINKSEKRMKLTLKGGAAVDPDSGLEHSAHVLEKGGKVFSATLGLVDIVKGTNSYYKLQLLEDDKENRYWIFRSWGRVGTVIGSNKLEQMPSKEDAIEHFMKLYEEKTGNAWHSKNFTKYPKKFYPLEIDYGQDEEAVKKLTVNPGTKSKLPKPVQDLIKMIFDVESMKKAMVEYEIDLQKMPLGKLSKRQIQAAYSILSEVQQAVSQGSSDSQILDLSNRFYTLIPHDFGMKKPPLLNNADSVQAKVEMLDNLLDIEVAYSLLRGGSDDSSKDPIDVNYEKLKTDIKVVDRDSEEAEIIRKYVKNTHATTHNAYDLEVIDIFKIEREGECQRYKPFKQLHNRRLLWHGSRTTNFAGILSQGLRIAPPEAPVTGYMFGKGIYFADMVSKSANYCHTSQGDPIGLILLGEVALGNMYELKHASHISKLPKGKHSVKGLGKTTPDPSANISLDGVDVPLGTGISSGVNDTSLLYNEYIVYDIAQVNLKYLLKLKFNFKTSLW", "experiment": "Inhibition of PARP1 (unknown origin) by ELISA"}, "MDA-MB-436": {"tested_on": "MDA-MB-436", "experiment": "Antiproliferative activity against human MDA-MB-436 cells after 7 days by CCK8 or SRB assay", "assay_type": "functional, cell-based", "settings": "MDA-MB-436, 168 h"}, "[2]": {"experiment": "Cytotoxicity against BRCA2 deficient Chinese hamster VC8 cells after 3 days by CCK8 or SRB assay", "assay_type": "functional, cell-based", "settings": "Cricetulus griseus, V-C8, 72 h"}, "V79": {"tested_on": "V79", "experiment": "Cytotoxicity against BRCA2 expressing Chinese hamster V79 cells after 3 days by CCK8 or SRB assay", "assay_type": "cell-based", "settings": "Cricetulus griseus, V79, 72 h"}}, "note": "pIC50: −log10 of the molar value.", "data": [{"smiles": "O=C(c1cc(Cc2n[nH]c(=O)c3ccccc23)cc(F)c1F)N1CCN(c2ccc(F)cc2)CC1", "values": [{"measurement": "pIC50", "setting": "[1]", "value": 9.40}, {"measurement": "pIC50", "setting": "MDA-MB-436", "value": 7.97}, {"measurement": "pIC50", "setting": "[2]", "value": 7.05}, {"measurement": "pIC50", "setting": "V79", "value": 5.54}]}, {"smiles": "O=C(c1cc(Cc2n[nH]c(=O)c3ccccc23)cc(F)c1F)N1CCN(c2ccccn2)CC1", "values": [{"measurement": "pIC50", "setting": "[1]", "value": 10.00}, {"measurement": "pIC50", "setting": "MDA-MB-436", "value": "> 10.52"}, {"measurement": "pIC50", "setting": "[2]", "value": "> 8.49"}, {"measurement": "pIC50", "setting": "V79", "value": 6.03}]}, {"smiles": "O=C(c1cc(Cc2n[nH]c(=O)c3ccccc23)cc(F)c1F)N1CCN(c2cccc(Cl)c2)CC1", "values": [{"measurement": "pIC50", "setting": "[1]", "value": 8.38}, {"measurement": "pIC50", "setting": "MDA-MB-436", "value": 6.40}, {"measurement": "pIC50", "setting": "[2]", "value": 5.80}, {"measurement": "pIC50", "setting": "V79", "value": 5.10}]}, {"smiles": "O=C(c1cc(Cc2n[nH]c(=O)c3ccccc23)cc(F)c1F)N1CCN(c2nccs2)CC1", "values": [{"measurement": "pIC50", "setting": "[1]", "value": 9.70}, {"measurement": "pIC50", "setting": "MDA-MB-436", "value": 8.20}, {"measurement": "pIC50", "setting": "[2]", "value": 6.86}, {"measurement": "pIC50", "setting": "V79", "value": "< 5.00"}]}, {"smiles": "Cc1ccc(N2CCN(C(=O)c3cc(Cc4n[nH]c(=O)c5ccccc45)cc(F)c3F)CC2)cc1", "values": [{"measurement": "pIC50", "setting": "[1]", "value": "> 10.00"}, {"measurement": "pIC50", "setting": "MDA-MB-436", "value": 6.39}, {"measurement": "pIC50", "setting": "[2]", "value": 5.68}, {"measurement": "pIC50", "setting": "V79", "value": "< 5.00"}]}, {"smiles": "CCN1CCN(C(=O)c2cc(Cc3n[nH]c(=O)c4ccccc34)cc(F)c2F)CC1", "values": [{"measurement": "pIC50", "setting": "[1]", "value": 8.85}, {"measurement": "pIC50", "setting": "MDA-MB-436", "value": 7.89}, {"measurement": "pIC50", "setting": "[2]", "value": 6.01}, {"measurement": "pIC50", "setting": "V79", "value": "< 5.00"}]}, {"smiles": "O=C(c1cc(Cc2n[nH]c(=O)c3ccccc23)cc(F)c1F)N1CCN(C2CCCCCC2)CC1", "values": [{"measurement": "pIC50", "setting": "[1]", "value": 9.10}, {"measurement": "pIC50", "setting": "MDA-MB-436", "value": 8.22}, {"measurement": "pIC50", "setting": "[2]", "value": 7.37}, {"measurement": "pIC50", "setting": "V79", "value": "< 5.00"}]}]}
